Experimental data taken from the supplement of paper PMC8741786.
≈ marks a conversion by molar mass, not a printed value.

Tests used:
Experiment in all cases: minimum inhibitory concentration (ETEST)
Neisseria lactamica = details: population: general population, antibiotic use in previous 6 months: No
Description: (§1)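 Oropharyngeal Neisseria isolates from MSM and employees in Belgium were identified to species by MALDI-TOF MS. MICs of azithromycin, ceftriaxone and ciprofloxacin were determined by ETEST on GC agar after 24 h at 36.5 °C and 5-7% CO2, in mg/L. Values beyond the strip range are reported as >256 (azithromycin) or <0.016 (ceftriaxone); isolates that did not grow are NA.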

Neisseria elongata = details: population: general population, antibiotic use in previous 6 months: No
Description: as §1

Neisseria bacilliformis = details: isolate id (sample isolate): Co000780_5; population: general population; antibiotic use in previous 6 months: No
Description: as §1

[1] = system: Neisseria subflava/flavescens/perflava
Description: as §1

CC[C@H]1OC(=O)[C@H](C)[C@@H](O[C@H]2C[C@@](C)(OC)[C@@H](O)[C@H](C)O2)[C@H](C)[C@@H](O[C@@H]2O[C@H](C)C[C@H](N(C)C)[C@H]2O)[C@](C)(O)C[C@@H](C)CN(C)[C@H](C)[C@@H](O)[C@]1(C)O [azithromycin]
minimum inhibitory concentration [µg/mL]
Details | isolate id (sample isolate): Co000761_1 | isolate id (sample isolate): Co000767_3 | isolate id (sample isolate): Co000771_1 | isolate id (sample isolate): Co000780_1 | isolate id (sample isolate): Co000783_4
Neisseria elongata | – | 0.5 (≈ 0.668 µM) | – | 0.75 (≈ 1 µM) | 0.38 (≈ 0.507 µM)
Neisseria lactamica | 2 (≈ 2.67 µM) | – | 1 (≈ 1.34 µM) | – | –

Details | minimum inhibitory concentration [µg/mL]
Neisseria bacilliformis | 2 (≈ 2.67 µM)

[1]
Details | minimum inhibitory concentration [µg/mL]
isolate id (sample isolate): 19041762_1, population: MSM, antibiotic use in previous 6 months: Yes | > 256
isolate id (sample isolate): 19041762_1.1, population: MSM, antibiotic use in previous 6 months: Yes | > 256
isolate id (sample isolate): 19041780_1, population: MSM, antibiotic use in previous 6 months: Yes | > 256
isolate id (sample isolate): 19042150_1, population: MSM, antibiotic use in previous 6 months: Yes | 64 (≈ 85.4 µM)
isolate id (sample isolate): 19042150_3, population: MSM, antibiotic use in previous 6 months: Yes | > 256
isolate id (sample isolate): 19042756_1, population: MSM, antibiotic use in previous 6 months: Yes | > 256
isolate id (sample isolate): 19042756_2, population: MSM, antibiotic use in previous 6 months: Yes | > 256
isolate id (sample isolate): 19043201_1.1, population: MSM, antibiotic use in previous 6 months: No | 96 (≈ 128 µM)
isolate id (sample isolate): 19043201_2.1, population: MSM, antibiotic use in previous 6 months: No | > 256
isolate id (sample isolate): 19043201_3, population: MSM, antibiotic use in previous 6 months: No | 96 (≈ 128 µM)
isolate id (sample isolate): 19043274_3, population: MSM, antibiotic use in previous 6 months: Yes | 128 (≈ 171 µM)
isolate id (sample isolate): 19050474_1, population: MSM, antibiotic use in previous 6 months: No | 8 (≈ 10.7 µM)
isolate id (sample isolate): 19050514_1, population: MSM, antibiotic use in previous 6 months: Yes | > 256
isolate id (sample isolate): 19050949_1, population: MSM, antibiotic use in previous 6 months: No | 3 (≈ 4.01 µM)
isolate id (sample isolate): 19050949_2, population: MSM, antibiotic use in previous 6 months: No | 4 (≈ 5.34 µM)
isolate id (sample isolate): 19050949_2.1, population: MSM, antibiotic use in previous 6 months: No | 4 (≈ 5.34 µM)
isolate id (sample isolate): 19051904_2, population: MSM, antibiotic use in previous 6 months: Yes | 2 (≈ 2.67 µM)
isolate id (sample isolate): 19051904_3, population: MSM, antibiotic use in previous 6 months: Yes | 1.5 (≈ 2 µM)
isolate id (sample isolate): 19052394_1, population: MSM, antibiotic use in previous 6 months: Yes | 2 (≈ 2.67 µM)
isolate id (sample isolate): 19052394_1.1, population: MSM, antibiotic use in previous 6 months: Yes | 1.5 (≈ 2 µM)
isolate id (sample isolate): 19060089_1, population: MSM, antibiotic use in previous 6 months: Yes | 8 (≈ 10.7 µM)
isolate id (sample isolate): 19062994_1, population: MSM, antibiotic use in previous 6 months: Yes | 2 (≈ 2.67 µM)
isolate id (sample isolate): Co000761_2, population: general population, antibiotic use in previous 6 months: No | 2 (≈ 2.67 µM)
isolate id (sample isolate): Co000761_3, population: general population, antibiotic use in previous 6 months: No | 4 (≈ 5.34 µM)
isolate id (sample isolate): Co000761_5, population: general population, antibiotic use in previous 6 months: No | 6 (≈ 8.01 µM)
isolate id (sample isolate): Co000761_6, population: general population, antibiotic use in previous 6 months: No | 3 (≈ 4.01 µM)
isolate id (sample isolate): Co000762_3, population: general population, antibiotic use in previous 6 months: No | 6 (≈ 8.01 µM)
isolate id (sample isolate): Co000762_4, population: general population, antibiotic use in previous 6 months: No | 4 (≈ 5.34 µM)
isolate id (sample isolate): Co000763_2, population: general population, antibiotic use in previous 6 months: No | 2 (≈ 2.67 µM)
isolate id (sample isolate): Co000764_1, population: general population, antibiotic use in previous 6 months: No | 8 (≈ 10.7 µM)
isolate id (sample isolate): Co000764_2, population: general population, antibiotic use in previous 6 months: No | 8 (≈ 10.7 µM)
isolate id (sample isolate): Co000765_2, population: general population, antibiotic use in previous 6 months: No | 3 (≈ 4.01 µM)
isolate id (sample isolate): Co000765_3, population: general population, antibiotic use in previous 6 months: No | 3 (≈ 4.01 µM)
isolate id (sample isolate): Co000765_4, population: general population, antibiotic use in previous 6 months: No | 3 (≈ 4.01 µM)
isolate id (sample isolate): Co000766_1, population: general population, antibiotic use in previous 6 months: No | 6 (≈ 8.01 µM)
isolate id (sample isolate): Co000766_3, population: general population, antibiotic use in previous 6 months: No | 1 (≈ 1.34 µM)
isolate id (sample isolate): Co000767_1, population: general population, antibiotic use in previous 6 months: No | 1 (≈ 1.34 µM)
isolate id (sample isolate): Co000767_2, population: general population, antibiotic use in previous 6 months: No | 6 (≈ 8.01 µM)
isolate id (sample isolate): Co000767_4, population: general population, antibiotic use in previous 6 months: No | 1.5 (≈ 2 µM)
isolate id (sample isolate): Co000767_5, population: general population, antibiotic use in previous 6 months: No | 1.5 (≈ 2 µM)
isolate id (sample isolate): Co000767_6, population: general population, antibiotic use in previous 6 months: No | 0.75 (≈ 1 µM)
isolate id (sample isolate): Co000767_7, population: general population, antibiotic use in previous 6 months: No | 1.5 (≈ 2 µM)
isolate id (sample isolate): Co000768_1, population: general population, antibiotic use in previous 6 months: No | 2 (≈ 2.67 µM)
isolate id (sample isolate): Co000768_2, population: general population, antibiotic use in previous 6 months: No | 3 (≈ 4.01 µM)
isolate id (sample isolate): Co000769_1, population: general population, antibiotic use in previous 6 months: No | 4 (≈ 5.34 µM)
isolate id (sample isolate): Co000769_2, population: general population, antibiotic use in previous 6 months: No | 2 (≈ 2.67 µM)
isolate id (sample isolate): Co000769_4, population: general population, antibiotic use in previous 6 months: No | 4 (≈ 5.34 µM)
isolate id (sample isolate): Co000770_2, population: general population, antibiotic use in previous 6 months: No | 2 (≈ 2.67 µM)
isolate id (sample isolate): Co000770_4, population: general population, antibiotic use in previous 6 months: No | 4 (≈ 5.34 µM)
isolate id (sample isolate): Co000770_6, population: general population, antibiotic use in previous 6 months: No | 3 (≈ 4.01 µM)
isolate id (sample isolate): Co000771_2, population: general population, antibiotic use in previous 6 months: No | 6 (≈ 8.01 µM)
isolate id (sample isolate): Co000771_3, population: general population, antibiotic use in previous 6 months: No | 6 (≈ 8.01 µM)
isolate id (sample isolate): Co000771_5, population: general population, antibiotic use in previous 6 months: No | 3 (≈ 4.01 µM)
isolate id (sample isolate): Co000772_1, population: general population, antibiotic use in previous 6 months: No | 2 (≈ 2.67 µM)
isolate id (sample isolate): Co000772_2, population: general population, antibiotic use in previous 6 months: No | 3 (≈ 4.01 µM)
isolate id (sample isolate): Co000772_4, population: general population, antibiotic use in previous 6 months: No | 4 (≈ 5.34 µM)
isolate id (sample isolate): Co000772_5, population: general population, antibiotic use in previous 6 months: No | 3 (≈ 4.01 µM)
isolate id (sample isolate): Co000772_6, population: general population, antibiotic use in previous 6 months: No | 4 (≈ 5.34 µM)
isolate id (sample isolate): Co000773_1, population: general population, antibiotic use in previous 6 months: No | 2 (≈ 2.67 µM)
isolate id (sample isolate): Co000773_2, population: general population, antibiotic use in previous 6 months: No | 3 (≈ 4.01 µM)
